The values that follow come from ChEMBL document CHEMBL5137043, “trans, trans-2-C-Aryl-3,4-dihydroxypyrrolidines as potent and selective β-glucosidase inhibitors: Pharmacological chaperones for Gaucher disease” (Eur J Med Chem, 2022).

A short description of assay [1]: Inhibition of bovine liver beta-galactosidase assessed as reduction of p-nitrophenol release using p-nitrophenyl-glycoside as substrate by spectrophotometric analysis. Details: species or system Bos taurus.
Assay [2] relates to Oryza sativa. The assay can be described thus: Inhibition of rice alpha-glucosidase assessed as reduction of p-nitrophenol release using p-nitrophenyl-glycoside as substrate at 1000 uM by spectrophotometric analysis.
For assay [3], the species on record is Bos taurus. The assay can be described thus: Inhibition of bovine liver beta-glucosidase assessed as reduction of p-nitrophenol release using p-nitrophenyl-glycoside as substrate at 1000 uM by spectrophotometric analysis.
Assay [4] is filed under the species Sus scrofa. The assay can be described thus: Inhibition of porcine kidney alpha-trehalase assessed as reduction of p-nitrophenol release using p-nitrophenyl-glycoside as substrate at 1000 uM by spectrophotometric analysis. The format is tissue-based.
Assay [5] deals with Penicillium decumbens. The assay can be described thus: Inhibition of Penicillium decumbens alpha-L-rhamnosidase assessed as reduction of p-nitrophenol release using p-nitrophenyl-glycoside as substrate at 1000 uM by spectrophotometric analysis.
In assay [6] the test system is Saccharomyces cerevisiae. Nature of the assay: Inhibition of yeast alpha-glucosidase assessed as reduction of p-nitrophenol release using p-nitrophenyl-glycoside as substrate at 1000 uM by spectrophotometric analysis.
Assay [7] deals with Sucrase-isomaltase, intestinal (Rattus norvegicus) (UniProt P23739). The assay can be described thus: Inhibition of rat small intestinal sucrase assessed as reduction of p-nitrophenol release using p-nitrophenyl-glycoside as substrate at 1000 uM by spectrophotometric analysis. The format is tissue-based. As to conditions: Small intestine.
Sequence of Sucrase-isomaltase, intestinal (Rattus norvegicus) (P23739 1-1013 limits assumed): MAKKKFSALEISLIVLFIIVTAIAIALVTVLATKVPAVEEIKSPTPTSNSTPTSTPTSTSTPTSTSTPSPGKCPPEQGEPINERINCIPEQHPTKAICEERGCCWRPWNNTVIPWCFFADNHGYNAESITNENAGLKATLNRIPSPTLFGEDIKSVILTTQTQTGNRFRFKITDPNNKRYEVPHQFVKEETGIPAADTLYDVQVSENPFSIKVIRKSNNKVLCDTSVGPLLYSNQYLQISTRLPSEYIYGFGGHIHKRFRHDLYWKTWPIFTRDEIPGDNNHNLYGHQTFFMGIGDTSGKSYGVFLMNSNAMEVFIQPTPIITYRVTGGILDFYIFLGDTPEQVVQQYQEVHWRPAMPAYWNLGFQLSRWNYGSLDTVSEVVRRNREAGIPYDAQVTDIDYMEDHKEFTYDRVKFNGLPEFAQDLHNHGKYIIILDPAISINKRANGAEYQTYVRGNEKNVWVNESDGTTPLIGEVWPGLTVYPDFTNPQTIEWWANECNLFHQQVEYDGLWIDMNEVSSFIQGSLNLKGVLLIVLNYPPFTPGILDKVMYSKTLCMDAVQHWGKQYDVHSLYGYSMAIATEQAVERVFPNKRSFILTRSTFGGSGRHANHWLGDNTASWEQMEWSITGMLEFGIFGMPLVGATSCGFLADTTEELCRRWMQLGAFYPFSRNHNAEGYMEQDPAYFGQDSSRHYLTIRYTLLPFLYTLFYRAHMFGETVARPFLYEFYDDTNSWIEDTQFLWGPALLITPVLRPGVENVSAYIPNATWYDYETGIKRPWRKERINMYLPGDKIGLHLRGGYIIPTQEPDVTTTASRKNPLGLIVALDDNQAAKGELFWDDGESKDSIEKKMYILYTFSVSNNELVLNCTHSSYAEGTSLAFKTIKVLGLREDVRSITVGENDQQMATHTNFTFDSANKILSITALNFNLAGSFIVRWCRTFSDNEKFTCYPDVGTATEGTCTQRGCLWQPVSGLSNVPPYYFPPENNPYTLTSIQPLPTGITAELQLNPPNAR
Sequence of Sucrase-isomaltase, intestinal (Rattus norvegicus) (P23739 1014-1841 limits assumed): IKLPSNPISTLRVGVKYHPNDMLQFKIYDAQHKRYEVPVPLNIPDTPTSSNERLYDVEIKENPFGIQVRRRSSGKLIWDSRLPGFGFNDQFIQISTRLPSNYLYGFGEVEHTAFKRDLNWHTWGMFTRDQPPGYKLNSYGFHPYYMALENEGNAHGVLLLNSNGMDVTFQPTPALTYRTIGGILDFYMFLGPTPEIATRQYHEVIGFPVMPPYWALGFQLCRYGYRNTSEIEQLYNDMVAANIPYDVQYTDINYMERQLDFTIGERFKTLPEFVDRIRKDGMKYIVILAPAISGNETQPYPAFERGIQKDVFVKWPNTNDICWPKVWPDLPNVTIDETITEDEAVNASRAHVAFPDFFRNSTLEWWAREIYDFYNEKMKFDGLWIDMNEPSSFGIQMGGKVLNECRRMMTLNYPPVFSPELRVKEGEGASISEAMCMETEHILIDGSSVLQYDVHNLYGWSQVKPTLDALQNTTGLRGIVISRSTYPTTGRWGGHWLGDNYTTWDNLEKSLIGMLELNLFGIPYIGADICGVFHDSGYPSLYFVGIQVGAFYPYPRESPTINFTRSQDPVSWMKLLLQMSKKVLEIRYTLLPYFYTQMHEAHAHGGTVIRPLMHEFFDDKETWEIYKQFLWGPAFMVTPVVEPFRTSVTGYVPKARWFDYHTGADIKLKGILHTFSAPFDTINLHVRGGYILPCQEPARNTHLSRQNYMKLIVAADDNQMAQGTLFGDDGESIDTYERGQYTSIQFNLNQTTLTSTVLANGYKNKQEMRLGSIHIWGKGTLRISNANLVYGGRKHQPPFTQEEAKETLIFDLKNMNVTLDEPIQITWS
In assay [8] the target is Lysosomal alpha-glucosidase (Rattus norvegicus) (UniProt Q6P7A9). The assay can be described thus: Inhibition of rat small intestinal maltase assessed as reduction of D-glucose release using maltose as substrate at 1000 uM by colorimetric analysis. The format is tissue-based. As to conditions: Small intestine.
Sequence of Lysosomal alpha-glucosidase (Rattus norvegicus) (Q6P7A9 whole entry): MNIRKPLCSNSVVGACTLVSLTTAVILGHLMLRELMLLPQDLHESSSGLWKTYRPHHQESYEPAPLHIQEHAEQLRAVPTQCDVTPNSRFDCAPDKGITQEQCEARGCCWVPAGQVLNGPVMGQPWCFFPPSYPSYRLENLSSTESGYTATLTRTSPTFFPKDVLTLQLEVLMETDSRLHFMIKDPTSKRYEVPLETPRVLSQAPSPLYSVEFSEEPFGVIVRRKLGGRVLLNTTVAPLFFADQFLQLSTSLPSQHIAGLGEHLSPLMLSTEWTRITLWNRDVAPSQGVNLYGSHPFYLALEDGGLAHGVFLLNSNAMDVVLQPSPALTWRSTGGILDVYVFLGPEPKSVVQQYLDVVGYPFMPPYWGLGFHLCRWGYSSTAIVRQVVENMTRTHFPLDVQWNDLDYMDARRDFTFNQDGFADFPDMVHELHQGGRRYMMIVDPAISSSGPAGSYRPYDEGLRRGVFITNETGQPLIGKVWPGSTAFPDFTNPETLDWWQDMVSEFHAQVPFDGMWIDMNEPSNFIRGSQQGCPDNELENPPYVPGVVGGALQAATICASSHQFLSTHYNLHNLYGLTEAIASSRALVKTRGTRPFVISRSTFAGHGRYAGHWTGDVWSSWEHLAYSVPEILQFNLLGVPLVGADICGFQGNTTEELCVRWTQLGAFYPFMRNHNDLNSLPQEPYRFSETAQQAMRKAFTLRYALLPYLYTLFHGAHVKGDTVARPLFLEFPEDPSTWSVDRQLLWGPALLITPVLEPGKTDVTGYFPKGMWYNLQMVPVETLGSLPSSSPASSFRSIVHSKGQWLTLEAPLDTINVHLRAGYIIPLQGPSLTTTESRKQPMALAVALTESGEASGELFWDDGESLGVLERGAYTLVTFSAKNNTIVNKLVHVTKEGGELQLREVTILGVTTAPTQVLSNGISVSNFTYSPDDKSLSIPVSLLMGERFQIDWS
Assay [9] is filed under the species Bos taurus. The assay can be described thus: Inhibition of bovine liver beta-glucuronidase assessed as reduction of p-nitrophenol release using p-nitrophenyl-glycoside as substrate at 1000 uM by spectrophotometric analysis.
The target in assay [10] is Alpha-galactosidase (Coffea arabica) (UniProt Q42656). Nature of the assay: Inhibition of coffee beans alpha-galactosidase assessed as reduction of p-nitrophenol release using p-nitrophenyl-glycoside as substrate at 1000 uM by spectrophotometric analysis.
Sequence of Alpha-galactosidase (Coffea arabica) (Q42656 16-378 limits assumed): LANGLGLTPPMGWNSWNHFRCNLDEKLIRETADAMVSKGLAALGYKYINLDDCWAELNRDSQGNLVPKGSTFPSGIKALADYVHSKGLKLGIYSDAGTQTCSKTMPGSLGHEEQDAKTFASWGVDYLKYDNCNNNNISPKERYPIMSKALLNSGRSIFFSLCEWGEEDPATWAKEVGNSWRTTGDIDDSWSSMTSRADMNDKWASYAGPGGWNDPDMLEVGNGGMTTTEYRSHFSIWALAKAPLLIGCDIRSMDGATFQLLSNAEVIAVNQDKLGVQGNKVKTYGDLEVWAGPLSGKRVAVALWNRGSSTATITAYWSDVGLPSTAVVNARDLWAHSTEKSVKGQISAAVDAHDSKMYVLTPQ
In assay [11] the target is T1, Tissue alpha-L-fucosidase (Bos taurus) (UniProt Q2KIM0).
T1 sequence (whole entry): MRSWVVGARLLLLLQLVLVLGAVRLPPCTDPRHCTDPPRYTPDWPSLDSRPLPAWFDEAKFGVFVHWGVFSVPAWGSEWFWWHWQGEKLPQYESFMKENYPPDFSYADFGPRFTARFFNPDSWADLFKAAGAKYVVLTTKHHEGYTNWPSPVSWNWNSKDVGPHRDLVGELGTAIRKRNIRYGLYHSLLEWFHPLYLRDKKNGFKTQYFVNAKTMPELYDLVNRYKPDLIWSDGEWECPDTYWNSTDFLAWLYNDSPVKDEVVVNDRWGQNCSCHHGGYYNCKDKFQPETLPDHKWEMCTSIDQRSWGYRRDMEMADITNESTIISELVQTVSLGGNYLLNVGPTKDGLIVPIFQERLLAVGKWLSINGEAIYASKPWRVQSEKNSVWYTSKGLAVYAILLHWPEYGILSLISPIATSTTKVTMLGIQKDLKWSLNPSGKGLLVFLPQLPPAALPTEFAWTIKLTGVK
Nature of the assay: Inhibition of bovine kidney alpha-L-fucosidase assessed as reduction of p-nitrophenol release using p-nitrophenyl-glycoside as substrate at 1000 uM by spectrophotometric analysis. The format is tissue-based.

The nature of assay [12]: Inhibition of human lysosomal beta-glucosidase assessed as reduction of p-nitrophenol release using p-nitrophenyl-glycoside as substrate by spectrophotometric analysis. The class given is subcellular, Lysosome.
A short description of assay [13]: Inhibition of Escherichia coli beta-glucuronidase assessed as reduction of p-nitrophenol release using p-nitrophenyl-glycoside as substrate by spectrophotometric analysis.
The subject of assay [14] is Helix pomatia. The assay can be described thus: Inhibition of snail beta-mannosidase assessed as reduction of p-nitrophenol release using p-nitrophenyl-glycoside as substrate at 1000 uM by spectrophotometric analysis.
Assay [15] relates to Aspergillus niger. Nature of the assay: Inhibition of Aspergillus niger amyloglucosidase assessed as reduction of p-nitrophenol release using p-nitrophenyl-glycoside as substrate at 1000 uM by spectrophotometric analysis.
Assay [16] concerns the target Lysosomal alpha-glucosidase (Homo sapiens) (UniProt P10253). Nature of the assay: Inhibition of human lysosomal alpha-glucosidase assessed as reduction of p-nitrophenol release using p-nitrophenyl-glycoside as substrate at 1000 uM by spectrophotometric analysis. As to conditions: Lysosome.
Assay [17] can be described thus: Inhibition of almond beta-glucosidase assessed as reduction of p-nitrophenol release using p-nitrophenyl-glycoside as substrate by spectrophotometric analysis. Details: species or system Prunus dulcis.
In assay [18] the target is T2, Alpha-mannosidase (Canavalia ensiformis) (UniProt C0HJB3).
T2 sequence (whole entry): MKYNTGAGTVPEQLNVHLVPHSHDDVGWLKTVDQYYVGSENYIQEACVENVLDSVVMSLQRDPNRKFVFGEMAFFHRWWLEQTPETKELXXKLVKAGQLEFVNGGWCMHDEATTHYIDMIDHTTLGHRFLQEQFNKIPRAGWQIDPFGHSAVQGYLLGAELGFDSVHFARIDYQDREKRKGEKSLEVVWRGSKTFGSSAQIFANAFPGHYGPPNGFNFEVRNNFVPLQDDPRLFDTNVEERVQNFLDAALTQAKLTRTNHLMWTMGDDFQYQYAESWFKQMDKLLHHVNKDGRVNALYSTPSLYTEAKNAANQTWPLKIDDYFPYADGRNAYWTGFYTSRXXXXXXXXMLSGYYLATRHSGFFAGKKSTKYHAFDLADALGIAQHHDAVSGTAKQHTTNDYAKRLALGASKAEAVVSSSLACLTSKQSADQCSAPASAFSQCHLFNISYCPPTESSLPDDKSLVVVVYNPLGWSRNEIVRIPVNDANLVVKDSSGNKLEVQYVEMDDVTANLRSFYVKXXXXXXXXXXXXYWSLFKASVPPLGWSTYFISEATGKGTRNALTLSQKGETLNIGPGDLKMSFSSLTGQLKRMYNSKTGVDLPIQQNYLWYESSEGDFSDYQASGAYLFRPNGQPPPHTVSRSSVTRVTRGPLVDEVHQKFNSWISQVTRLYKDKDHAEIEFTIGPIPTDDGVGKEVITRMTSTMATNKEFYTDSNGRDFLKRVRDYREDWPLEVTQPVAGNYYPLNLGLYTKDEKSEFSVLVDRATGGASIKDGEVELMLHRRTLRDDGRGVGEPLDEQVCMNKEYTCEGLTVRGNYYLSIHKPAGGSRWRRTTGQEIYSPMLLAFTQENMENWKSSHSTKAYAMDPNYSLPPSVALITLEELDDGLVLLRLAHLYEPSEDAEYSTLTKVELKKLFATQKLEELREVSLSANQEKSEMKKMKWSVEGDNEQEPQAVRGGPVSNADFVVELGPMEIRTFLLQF
Nature of the assay: Inhibition of jack bean alpha-mannosidase assessed as reduction of p-nitrophenol release using p-nitrophenyl-glycoside as substrate at 1000 uM by spectrophotometric analysis.

Assay [19] in a line: Inhibition of bovine liver beta-glucosidase assessed as reduction of p-nitrophenol release using p-nitrophenyl-glycoside as substrate by spectrophotometric analysis. The class given is tissue-based, Bos taurus.
The target in assay [20] is Sucrase-isomaltase, intestinal (Rattus norvegicus, UniProt P23739). The assay can be described thus: Inhibition of rat small intestinal sucrase assessed as reduction of p-nitrophenol release using p-nitrophenyl-glycoside as substrate by spectrophotometric analysis. The format is tissue-based, Small intestine.
Sequence of Sucrase-isomaltase, intestinal (P23739 1-1013 limits assumed): as the sequence (P23739 1-1013 limits assumed) above
Sequence of Sucrase-isomaltase, intestinal (P23739 1014-1841 limits assumed): as the sequence (P23739 1014-1841 limits assumed) above
The subject of assay [21] is Escherichia coli. Nature of the assay: Inhibition of Escherichia coli beta-glucuronidase assessed as reduction of p-nitrophenol release using p-nitrophenyl-glycoside as substrate at 1000 uM by spectrophotometric analysis.
Assay [22] in a line: Inhibition of yeast alpha-glucosidase assessed as reduction of p-nitrophenol release using p-nitrophenyl-glycoside as substrate by spectrophotometric analysis. Details: species or system Saccharomyces cerevisiae.
The nature of assay [23]: Inhibition of rice alpha-glucosidase assessed as reduction of p-nitrophenol release using p-nitrophenyl-glycoside as substrate by spectrophotometric analysis. Details: species or system Oryza sativa.
Assay [24] is described as follows: Inhibition of porcine kidney alpha-trehalase assessed as reduction of p-nitrophenol release using p-nitrophenyl-glycoside as substrate by spectrophotometric analysis. The class given is tissue-based, Sus scrofa.
For assay [25], the species on record is Homo sapiens. The assay can be described thus: Inhibition of human lysosomal beta-glucosidase assessed as reduction of p-nitrophenol release using p-nitrophenyl-glycoside as substrate at 1000 uM by spectrophotometric analysis. As to conditions: Lysosome. The class given is subcellular.
The species named for assay [26] is Bos taurus. Nature of the assay: Inhibition of bovine liver beta-galactosidase assessed as reduction of p-nitrophenol release using p-nitrophenyl-glycoside as substrate at 1000 uM by spectrophotometric analysis.
In assay [27] the test system is Prunus dulcis. The assay can be described thus: Inhibition of almond beta-glucosidase assessed as reduction of p-nitrophenol release using p-nitrophenyl-glycoside as substrate at 1000 uM by spectrophotometric analysis.
Assay [28] concerns the target T3, Lysosomal acid glucosylceramidase (Homo sapiens, UniProt P04062).
T3 sequence (P04062 whole entry): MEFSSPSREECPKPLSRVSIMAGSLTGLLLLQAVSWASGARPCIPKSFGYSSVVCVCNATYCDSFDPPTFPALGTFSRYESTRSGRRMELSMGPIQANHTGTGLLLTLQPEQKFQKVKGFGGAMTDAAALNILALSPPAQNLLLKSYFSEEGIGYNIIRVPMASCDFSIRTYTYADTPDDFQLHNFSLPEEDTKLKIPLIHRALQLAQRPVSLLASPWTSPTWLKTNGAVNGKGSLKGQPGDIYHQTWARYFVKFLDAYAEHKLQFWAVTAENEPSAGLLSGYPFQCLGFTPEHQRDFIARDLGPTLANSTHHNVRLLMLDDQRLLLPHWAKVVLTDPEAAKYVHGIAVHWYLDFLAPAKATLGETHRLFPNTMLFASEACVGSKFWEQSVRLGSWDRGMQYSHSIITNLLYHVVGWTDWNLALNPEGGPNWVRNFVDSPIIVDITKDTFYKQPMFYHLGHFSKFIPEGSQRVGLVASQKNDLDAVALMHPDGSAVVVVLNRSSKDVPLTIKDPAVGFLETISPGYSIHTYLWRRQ
Nature of the assay: Inhibition of human GCase.

The target in assay [29] is T3, Lysosomal acid glucosylceramidase. The assay can be described thus: Inhibition of human GCase assessed as reduction of 4-methylumbelliferone liberation using 4-methylumbelliferyl-beta-glucopyranoside as substrate preincubated with enzyme for 10 mins followed by substrate addition by fluorescence spectrophotometry.
Assay [30] is described as follows: Inhibition of Aspergillus niger amyloglucosidase assessed as reduction of p-nitrophenol release using p-nitrophenyl-glycoside as substrate by spectrophotometric analysis.

Turning to `O[C@H]1[C@H](O)CN[C@@H]1c1ccc(-c2ccccc2)cc1`, the IC50 in [1] amounted to 328 µM; in assay [12], 0.76 µM; in assay [13], 281 µM; in [17] it was 285 µM. Also, the inhibition was 19% in [2]; 39.9% in assay [3]; 13.1% in assay [4]; 0% in [5]; 10.1% in assay [6]; 47.4% in assay [7]. For the same molecule, the inhibition turned out to be 15.8% in assay [8]; 2.3% in assay [9]; 0% in [10]; 0% in [11]; 9.7% in [14]; 0% in assay [15]. The figures for the inhibition in [16] and in [18] were 2.9% and 0%, respectively.
`O[C@@H]1[C@@H](O)CN[C@H]1c1ccc(-c2ccccc2)cc1`: the 50% inhibitory concentration (IC50) turned out to be 83 µM in assay [1]; 1.2 µM in assay [12]; 418 µM in assay [13]; 234 µM in [17]; 458 µM in assay [19]; 580 µM in assay [20]. For the same molecule, the inhibition came to 10.3% in [2]; 1.6% in [4]; 6.4% in assay [5]; 4.7% in assay [6]; 28.8% in [8]; 4.2% in [9]. Also, the inhibition in assay [10] stood at 0.3%; in assay [11], 0%; in [14] it was 14.9%; in assay [15], 0%; in [16] it was 15.6%; in assay [18] it was 0%.
For `OC[C@@H]1NCC(O)C1O` (single isomer, unassigned), the inhibition in [21] was determined as 8%; in assay [3], 4.6%; in assay [5] it was 1.3%; in [9], 6.3%; in [10] it was 3.9%; in assay [11] it was 13.3%. Moreover, the inhibition in assay [14] stood at 0.5%; in [15], 25.6%; in assay [25], 16.1%; in assay [18], 0%; in [26], 8.3%; in assay [27], 32.6%. Besides, the IC50 was 163 µM in assay [22], 1.9 µM in assay [23] and 161 µM in assay [24].
Regarding `O[C@@H]1[C@@H](O)CN[C@H]1c1ccccc1`, the IC50 in [28] turned out to be 26.5 µM.
For the molecule `CCCCN1C[C@H](CO)[C@@H](O)[C@H](O)C1`, in assay [29], the IC50 came out at 44 µM.
In the case of `O[C@H]1[C@H](O)CN[C@@H]1c1ccccc1`, the values for the IC50 in assay [1], in assay [12] and in assay [23] were 441 µM, 11 µM and 466 µM, respectively. The inhibition turned out to be 20.3% in assay [21]; 43.7% in [3]; 6.1% in assay [4]; 0.5% in [5]; 0.3% in assay [6]; 39.9% in [7]. The inhibition was found to be 12.4% in [8]; 15% in assay [9]; 8.6% in assay [10]; 0% in assay [11]; 10.1% in assay [14]; 2% in assay [15]. Besides, the inhibition in [16] was found to be 29%; in assay [18] it was 8.3%; in assay [27], 3.9%.
With `OC[C@H]1NC[C@@H](O)[C@@H]1O`, the inhibition in [21] was found to be 5.3%; in [3], 7.9%; in [5], 13.5%; in [9], 6.3%; in assay [10] it was 4.1%; in assay [11] it was 9%. For the same molecule, the inhibition was 13% in assay [14] and 11.4% in assay [26]. Moreover, the IC50 in assay [30] turned out to be 355 µM; in assay [12], 340 µM; in assay [22] it was 2.5 µM; in [23], 87 µM; in assay [24] it was 11 µM; in assay [17] it was 967 µM.
